Results published in PubChem BioAssay AID2060328 (Molecular Pharmacology Branch, DTP, NCI, 2025).

System: MDA-MB-231 multicell spheroids, viability (%T/C)
Experiment: Anticancer human tumor MDA-MB-231 cell line growth inhibition [IpAb];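 further: viability read after seven days of drug exposure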;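 on viability, T/C: 100% = DMSO vehicle control viability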
Details: for IC50: curve of first compound; for viability, T/C: stronger effect = lower value
Procedure, shortened: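 Multi-cell spheroids of 60% tumour cells, 25% HUVEC and 15% MSC in ultra-low-attachment U-bottom wells, treated with agents combined with ipatasertib or abemaciclib. Half-log ranges top out near clinical Cmax, or 10 microM when Cmax is unknown.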

[1] = second compound 0.1 µM, first compound 0.0316 µM
[2] = second compound 0.1 µM, first compound 0.1 µM
[3] = second compound 0.1 µM, first compound 0.316 µM
[4] = second compound 0.1 µM, first compound 1 µM
[5] = second compound 0.1 µM, first compound 3.16 µM
[6] = second compound 0.1 µM, first compound 10 µM
[7] = second compound 0.316 µM, first compound 0.0316 µM
[8] = second compound 0.316 µM, first compound 0.1 µM
[9] = second compound 0.316 µM, first compound 0.316 µM
[10] = second compound 0.316 µM, first compound 1 µM
[11] = second compound 0.316 µM, first compound 3.16 µM
[12] = second compound 0.316 µM, first compound 10 µM
[13] = second compound 1 µM, first compound 0.0316 µM
[14] = second compound 1 µM, first compound 0.1 µM
[15] = second compound 1 µM, first compound 0.316 µM
[16] = second compound 1 µM, first compound 1 µM
[17] = second compound 1 µM, first compound 3.16 µM
[18] = second compound 1 µM, first compound 10 µM

SMILES	IC50 (second compound 0.1 µM)	IC50 (second compound 0.316 µM)	IC50 (second compound 1 µM)	viability, T/C [1]	viability, T/C [2]	viability, T/C [3]	viability, T/C [4]	viability, T/C [5]	viability, T/C [6]	viability, T/C [7]	viability, T/C [8]	viability, T/C [9]	viability, T/C [10]	viability, T/C [11]	viability, T/C [12]	viability, T/C [13]	viability, T/C [14]	viability, T/C [15]	viability, T/C [16]	viability, T/C [17]	also measured
CCCS(=O)(=O)Nc1ccc(F)c(C(=O)c2c[nH]c3ncc(-c4ccc(Cl)cc4)cc23)c1F + CC(C)NCC(C(=O)N1CCN(c2ncnc3c2C(C)CC3O)CC1)c1ccc(Cl)cc1	8.31 µM	6.04 µM	5.31 µM	106%	106%	104%	97.2%	75.4%	45.1%	98.1%	95.9%	92.2%	87.3%	61.2%	41.1%	80.1%	84.8%	79.8%	71.3%	60.1%	IC50 (second compound 3.16 µM): 1.76 µM; IC50 (second compound 10 µM): < 0.0316 µM; viability, T/C [18]: 38.3%; viability, T/C (second compound 3.16 µM, first compound 0.0316 µM): 59.3%; viability, T/C (second compound 3.16 µM, first compound 0.1 µM): 68.2%; viability, T/C (second compound 3.16 µM, first compound 0.316 µM): 61.7%; viability, T/C (second compound 3.16 µM, first compound 1 µM): 56.7%; viability, T/C (second compound 3.16 µM, first compound 3.16 µM): 42.9%; viability, T/C (second compound 3.16 µM, first compound 10 µM): 30.9%; viability, T/C (second compound 10 µM, first compound 0.0316 µM): 45.4%; viability, T/C (second compound 10 µM, first compound 0.1 µM): 48.2%; viability, T/C (second compound 10 µM, first compound 0.316 µM): 44.2%; viability, T/C (second compound 10 µM, first compound 1 µM): 36.6%; viability, T/C (second compound 10 µM, first compound 3.16 µM): 35%; viability, T/C (second compound 10 µM, first compound 10 µM): 27.6%
CC1(C)CCC(CN2CCN(c3ccc(C(=O)NS(=O)(=O)c4ccc(NCC5CCOCC5)c([N+](=O)[O-])c4)c(Oc4cnc5[nH]ccc5c4)c3)CC2)=C(c2ccc(Cl)cc2)C1 + CCN1CCN(Cc2ccc(Nc3ncc(F)c(-c4cc(F)c5nc(C)n(C(C)C)c5c4)n3)nc2)CC1	4.26 µM	< 0.0316 µM	3.22 µM	64.2%	66.6%	63.9%	65%	66.4%	6.54%	50.5%	50.4%	48.2%	47.9%	44.8%	7.02%	48.2%	52.7%	52.9%	53.4%	50.7%	IC50 (second compound 0.01 µM): 5.85 µM; IC50 (second compound 0.0316 µM): 5.15 µM; viability, T/C (second compound 0.01 µM, first compound 0.0316 µM): 102%; viability, T/C (second compound 0.01 µM, first compound 0.1 µM): 97.5%; viability, T/C (second compound 0.01 µM, first compound 0.316 µM): 100%; viability, T/C (second compound 0.01 µM, first compound 1 µM): 101%; viability, T/C (second compound 0.01 µM, first compound 3.16 µM): 94.8%; viability, T/C (second compound 0.01 µM, first compound 10 µM): 11%; viability, T/C (second compound 0.0316 µM, first compound 0.0316 µM): 86.7%; viability, T/C (second compound 0.0316 µM, first compound 0.1 µM): 81.8%; viability, T/C (second compound 0.0316 µM, first compound 0.316 µM): 82.2%; viability, T/C (second compound 0.0316 µM, first compound 1 µM): 83.2%; viability, T/C (second compound 0.0316 µM, first compound 3.16 µM): 78.6%; viability, T/C (second compound 0.0316 µM, first compound 10 µM): 11.2%; viability, T/C [18]: 7.14%
